Marks after values point to notes of the source that are not given here.
Key:
Assay type in all cases: physicochemical
[1] = Thermal stability by thermogravimetric analysis (TGA); settings: TGA at 10% weight loss
Experimental: (§1) The thermal stability of MILs was measured from 40 to 350° C. at a ramp rate of 5° C. min^−1 by performing thermogravimetric analysis (TGA) using a NETZSCH STA 449 F1 Jupiter thermal analyzer (Selb, Germany). To further investigate the thermal stability of MILs using a more sensitive technique, the solvents were employed as a gas chromatographic (GC) stationary phase and subjected to an oven temperature program from 40 to 200° C. at a ramp rate of 1° C. min^−1 and decomposition/degradation products detected using an ultra-sensitive flame ionization detector (FID), with all measurements being performed on an Agilent Technologies 7890B gas chromatograph (Santa Clara, CA, USA).
Volitization/degradation of MILs as a function of temperature were measured using thermogravimetric analysis. The thermal stability of magnetic ionic liquids was measured from 40 to 350° C. at a ramp rate of 5° C. min^−1 by performing thermogravimetric analysis (TGA) using a NETZSCH STA 449 F1 Jupiter thermal analyzer (Selb, Germany).
To investigate the ability of DGE-based MILs to withstand elevated temperatures without undergoing degradation/decomposition, their thermal stabilities were investigated using thermogravimetric analysis (TGA). FIG. 13 through FIG. 27 display thermograms for MILs 1 to 15. The thermogram results are summarized in greater detail in the following paragraphs.

[2] = Thermal stability, MIL as GC stationary phase with FID; settings: exponential increase in response beyond 2,000 pA
Experimental: as §1
To further investigate the thermal stability of MILs using a more sensitive technique, the solvents were employed as a gas chromatographic (GC) stationary phase and subjected to an oven temperature program from 40 to 200° C. at a ramp rate of 1° C. min^−1 and decomposition/degradation products detected using an ultra-sensitive flame ionization detector (FID).

[3] = Viscosity, Brookfield DVI cone and plate viscometer; settings: 21.7° C.; neat MIL dried 48 hours under vacuum
Experimental: A Brookfield DVI cone and plate viscometer equipped with a CPA-51Z cone spindle was employed to obtain viscosity measurements at […] using approximately 0.5 g of each MIL after extensive drying for 48 hours under vacuum. Viscosity measurements were conducted at 21.7° C. for 15 lanthanide and transition metal MILs examined in this study.
Viscosity measurements were conducted at 21.7° C. for 15 lanthanide and transition metal MILs examined in this study.

[4] = Effective magnetic moment from magnetic susceptibility balance (MSB); settings: per formula unit
Experimental: Magnetic properties were analyzed using a magnetic susceptibility balance (MSB, Sherwood Scientific, Cambridge, UK) and a Quantum Design Superconducting Quantum Interference Device (SQUID) magnetometer (MPMS XL-7). The magnetic properties of transition metal MILs were further studied using a SQUID magnetometer to confirm their paramagnetic nature as well as if any magnetic transition occurs in the samples.
Magnetic susceptibility (XM) was calculated through Equation (1).
Effective magnetic moment (μeff) was calculated through Equation (2). In Equation (2), T represents the temperature at which the magnetic susceptibility measurements were conducted.
15 MILs incorporating rare-earth and transition metals were examined using a magnetic susceptibility balance (MSB).

[5] = Solubility of MILs in organic solvents and water
Description: The solubility of lanthanide and transition metal MILs was investigated in popular traditional organic solvents. […]
The solubility of lanthanide and transition metal MILs was investigated in popular traditional organic solvents.

[6] = acetone, chloroform, dichloromethane, acetonitrile, methanol, ethanol, diethyl ether, ethyl acetate, isopropanol at 20% (w/v)
[7] = hexane, heptane, benzene, toluene at 10% (w/v)
[8] = hexane, heptane, benzene, toluene at 20% (w/v)
[9] = twelve organic solvents (without acetonitrile) at 50% (w/v)

SMILES | Onset of MIL volatilization (° C.)^2 [1] [°C] | Onset of MIL volatilization (° C.)^1 [2] [°C] | Viscosity (cP) [3] | μeff, effective magnetic moment [4] [μB] | Solubility [5, 6] | Solubility [5, 7] | Solubility [5, 8] | Solubility [5, 9] | Solubility ([5]; water at 0.01% (w/v))
CCCCCCCCOC(=O)c1ccc(C(=O)OCCCCCCCC)o1.CCCCCCCCOC(=O)c1ccc(C(=O)OCCCCCCCC)o1.CCCCCCCCOC(=O)c1ccc(C(=O)OCCCCCCCC)o1.CCCCCCCCOC(=O)c1ccc(C(=O)OCCCCCCCC)o1.CCCCCCCCOC(=O)c1ccc(C(=O)OCCCCCCCC)o1.CCCCCCCCOC(=O)c1ccc(C(=O)OCCCCCCCC)o1.O=C(C=C([O-])C(F)(F)F)C(F)(F)F.O=C(C=C([O-])C(F)(F)F)C(F)(F)F.O=C(C=C([O-])C(F)(F)F)C(F)(F)F.O=C(C=C([O-])C(F)(F)F)C(F)(F)F.O=C(C=C([O-])C(F)(F)F)C(F)(F)F.O=C(C=C([O-])C(F)(F)F)C(F)(F)F.[Ni+2].[Ni+2].[Ni+2] [compound 11] | 160.6 | 142 | 453.5^b cP | 5.51 | S^b (soluble in acetone, chloroform, dichloromethane, acetonitrile, methanol, ethanol, diethyl ether, ethyl acetate, and isopropanol at 20% (w/v).) | S^a (soluble in hexane, heptane, benzene, and toluene at 10% (w/v).) | S^c (soluble in hexane, heptane, benzene, and toluene at 20% (w/v).) | S^d (soluble in acetone, chloroform, dichloromethane, methanol, ethanol, diethyl ether, ethyl acetate, isopropanol hexane, heptane, benzene, and toluene at 50% (w/v).) | S^f (insoluble in water at 0.01% (w/v).)
CCCCCCCCOC(=O)c1ccc(C(=O)OCCCCCCCC)o1.CCCCCCCCOC(=O)c1ccc(C(=O)OCCCCCCCC)o1.CCCCCCCCOC(=O)c1ccc(C(=O)OCCCCCCCC)o1.CCCCCCCCOC(=O)c1ccc(C(=O)OCCCCCCCC)o1.CCCCCCCCOC(=O)c1ccc(C(=O)OCCCCCCCC)o1.CCCCCCCCOC(=O)c1ccc(C(=O)OCCCCCCCC)o1.O=C(C=C([O-])C(F)(F)F)C(F)(F)F.O=C(C=C([O-])C(F)(F)F)C(F)(F)F.O=C(C=C([O-])C(F)(F)F)C(F)(F)F.O=C(C=C([O-])C(F)(F)F)C(F)(F)F.O=C(C=C([O-])C(F)(F)F)C(F)(F)F.O=C(C=C([O-])C(F)(F)F)C(F)(F)F.[Mn+2].[Mn+2].[Mn+2] [compound 12] | 160.4 | 144 | 291.8^b cP | 10.04 | S^b (soluble in acetone, chloroform, dichloromethane, acetonitrile, methanol, ethanol, diethyl ether, ethyl acetate, and isopropanol at 20% (w/v).) | S^a (soluble in hexane, heptane, benzene, and toluene at 10% (w/v).) | S^c (soluble in hexane, heptane, benzene, and toluene at 20% (w/v).) | S^d (soluble in acetone, chloroform, dichloromethane, methanol, ethanol, diethyl ether, ethyl acetate, isopropanol hexane, heptane, benzene, and toluene at 50% (w/v).) | S^f (insoluble in water at 0.01% (w/v).)
CCCCCCCCOC(=O)COCC(=O)OCCCCCCCC.CCCCCCCCOC(=O)COCC(=O)OCCCCCCCC.CCCCCCCCOC(=O)COCC(=O)OCCCCCCCC.CCCCCCCCOC(=O)COCC(=O)OCCCCCCCC.CCCCCCCCOC(=O)COCC(=O)OCCCCCCCC.CCCCCCCCOC(=O)COCC(=O)OCCCCCCCC.O=C(C=C([O-])C(F)(F)F)C(F)(F)F.O=C(C=C([O-])C(F)(F)F)C(F)(F)F.O=C(C=C([O-])C(F)(F)F)C(F)(F)F.O=C(C=C([O-])C(F)(F)F)C(F)(F)F.O=C(C=C([O-])C(F)(F)F)C(F)(F)F.O=C(C=C([O-])C(F)(F)F)C(F)(F)F.O=C(C=C([O-])C(F)(F)F)C(F)(F)F.O=C(C=C([O-])C(F)(F)F)C(F)(F)F.[Co+2].[Dy+3].[Dy+3] [compound 13] | 182.3 | 131 | 137.2 cP | 15.38 | S^b (soluble in acetone, chloroform, dichloromethane, acetonitrile, methanol, ethanol, diethyl ether, ethyl acetate, and isopropanol at 20% (w/v).) | S^a (soluble in hexane, heptane, benzene, and toluene at 10% (w/v).) | S^c (soluble in hexane, heptane, benzene, and toluene at 20% (w/v).) | S^d (soluble in acetone, chloroform, dichloromethane, methanol, ethanol, diethyl ether, ethyl acetate, isopropanol hexane, heptane, benzene, and toluene at 50% (w/v).) | S^f (insoluble in water at 0.01% (w/v).)
CCCCCCCCOC(=O)COCC(=O)OCCCCCCCC.CCCCCCCCOC(=O)COCC(=O)OCCCCCCCC.CCCCCCCCOC(=O)COCC(=O)OCCCCCCCC.CCCCCCCCOC(=O)COCC(=O)OCCCCCCCC.CCCCCCCCOC(=O)COCC(=O)OCCCCCCCC.CCCCCCCCOC(=O)COCC(=O)OCCCCCCCC.O=C(C=C([O-])C(F)(F)F)C(F)(F)F.O=C(C=C([O-])C(F)(F)F)C(F)(F)F.O=C(C=C([O-])C(F)(F)F)C(F)(F)F.O=C(C=C([O-])C(F)(F)F)C(F)(F)F.O=C(C=C([O-])C(F)(F)F)C(F)(F)F.O=C(C=C([O-])C(F)(F)F)C(F)(F)F.O=C(C=C([O-])C(F)(F)F)C(F)(F)F.O=C(C=C([O-])C(F)(F)F)C(F)(F)F.[Co+2].[Gd+3].[Gd+3] [compound 14] | 172.9 | 126 | 149.1 cP | 12.43 | S^b (soluble in acetone, chloroform, dichloromethane, acetonitrile, methanol, ethanol, diethyl ether, ethyl acetate, and isopropanol at 20% (w/v).) | S^a (soluble in hexane, heptane, benzene, and toluene at 10% (w/v).) | S^c (soluble in hexane, heptane, benzene, and toluene at 20% (w/v).) | S^d (soluble in acetone, chloroform, dichloromethane, methanol, ethanol, diethyl ether, ethyl acetate, isopropanol hexane, heptane, benzene, and toluene at 50% (w/v).) | S^f (insoluble in water at 0.01% (w/v).)
CCCCCCCCOC(=O)COCC(=O)OCCCCCCCC.CCCCCCCCOC(=O)COCC(=O)OCCCCCCCC.CCCCCCCCOC(=O)COCC(=O)OCCCCCCCC.CCCCCCCCOC(=O)COCC(=O)OCCCCCCCC.CCCCCCCCOC(=O)COCC(=O)OCCCCCCCC.CCCCCCCCOC(=O)COCC(=O)OCCCCCCCC.O=C(C=C([O-])C(F)(F)F)C(F)(F)F.O=C(C=C([O-])C(F)(F)F)C(F)(F)F.O=C(C=C([O-])C(F)(F)F)C(F)(F)F.O=C(C=C([O-])C(F)(F)F)C(F)(F)F.O=C(C=C([O-])C(F)(F)F)C(F)(F)F.O=C(C=C([O-])C(F)(F)F)C(F)(F)F.O=C(C=C([O-])C(F)(F)F)C(F)(F)F.O=C(C=C([O-])C(F)(F)F)C(F)(F)F.[Co+2].[Ho+3].[Ho+3] [compound 15] | 183.3 | 115 | 216.4 cP | 15.56 | S^b (soluble in acetone, chloroform, dichloromethane, acetonitrile, methanol, ethanol, diethyl ether, ethyl acetate, and isopropanol at 20% (w/v).) | S^a (soluble in hexane, heptane, benzene, and toluene at 10% (w/v).) | S^c (soluble in hexane, heptane, benzene, and toluene at 20% (w/v).) | S^d (soluble in acetone, chloroform, dichloromethane, methanol, ethanol, diethyl ether, ethyl acetate, isopropanol hexane, heptane, benzene, and toluene at 50% (w/v).) | S^f (insoluble in water at 0.01% (w/v).)

— patent publication US20240401154A1, “SYNTHESIS AND PREPARATION OF ULTRA-LOW VISCOSITY AND HIGH MAGNETIC SUSCEPTIBILITY MAGNETIC IONIC LIQUIDS” (priority 2023, published 2024)
